Calls of active or inactive are those of the source. Rule as the data show it: actives have a measured IC50 and inactives only a lower limit.

The assay deals with Envelope glycoprotein gp160 (Human immunodeficiency virus 1, UniProt Q6QLK5). The assay is described as follows: inhibitors of HIV fusion peptide binding, primary screen, biochemical, uHTS, fluorescence dequenching (AID 1986).
Sequence of Envelope glycoprotein gp160 (Q6QLK5 whole entry, the tested form may be a part): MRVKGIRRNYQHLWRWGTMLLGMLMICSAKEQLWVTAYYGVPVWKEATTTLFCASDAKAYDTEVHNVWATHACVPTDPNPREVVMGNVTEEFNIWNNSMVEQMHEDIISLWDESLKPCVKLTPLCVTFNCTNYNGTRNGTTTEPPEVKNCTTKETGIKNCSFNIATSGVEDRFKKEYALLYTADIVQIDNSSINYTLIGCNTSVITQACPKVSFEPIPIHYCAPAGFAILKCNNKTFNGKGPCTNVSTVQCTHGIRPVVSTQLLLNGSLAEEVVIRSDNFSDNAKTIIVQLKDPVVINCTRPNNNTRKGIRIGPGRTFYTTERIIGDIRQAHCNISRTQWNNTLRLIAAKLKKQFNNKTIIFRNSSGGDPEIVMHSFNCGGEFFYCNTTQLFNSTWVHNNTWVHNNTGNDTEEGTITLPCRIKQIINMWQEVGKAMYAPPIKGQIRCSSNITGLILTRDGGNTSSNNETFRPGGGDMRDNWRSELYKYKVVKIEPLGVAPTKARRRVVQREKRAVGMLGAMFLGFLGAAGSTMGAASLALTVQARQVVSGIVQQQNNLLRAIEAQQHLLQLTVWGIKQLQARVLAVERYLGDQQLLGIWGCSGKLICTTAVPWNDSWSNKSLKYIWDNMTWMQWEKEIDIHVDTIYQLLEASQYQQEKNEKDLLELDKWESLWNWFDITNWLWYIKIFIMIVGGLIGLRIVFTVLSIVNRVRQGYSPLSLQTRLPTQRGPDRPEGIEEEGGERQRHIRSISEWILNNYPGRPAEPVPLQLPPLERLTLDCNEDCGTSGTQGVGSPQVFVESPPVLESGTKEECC

Turning to `COc1cc(/C=C2/C(=N)N3C(=NC2=O)SN=C3S(C)(=O)=O)ccc1OS(=O)(=O)c1ccccc1`, the half-maximal inhibitory concentration (IC50) (in general, the concentration that inhibits the measured activity by half) was 19.8 µM (active).

For the origin of these results see ChEMBL document CHEMBL1201862, “PubChem BioAssay data set” (2004).
